In PubChem BioAssay (NCI) one finds TGI data, which are given here for 16 compounds.

Among the test systems are 786-0 renal; A498 renal; HCT-116 colon; HOP-62 NSCLC; OVCAR-4 ovarian; RXF 393 renal; SF-295 CNS; OVCAR-3 ovarian; SK-MEL-5 melanoma.
What all share (test): NCI-60 cell line screen, 48 h

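Values below derive from 48-hour exposures of cells grown in 96-well plates, with endpoints linearly interpolated between the two concentrations bracketing the appropriate inhibition level. Definition used: TGI = concentration required for complete inhibition of growth.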 Square brackets hold non-standard residues; d marks the D form. Peptide text beside a SMILES is read from it. Phe(4-NO2) = N[CH](Cc1ccc([N+](=O)[O-])cc1)C(=O)O A value given as a limit tells only on which side of the number the result lay.

As for `CCN(CCCl)c1cc(CN(C)C)cc(NC(=O)c2ccc(C(=O)Nc3ccccc3)cc2)c1`, the TGI in the assay with 786-0 renal is 0.581 µM; in the assay on A498 renal, 1.8 µM; with HCT-116 colon, 11.5 µM; in the assay on HOP-62 NSCLC, 3.21 µM; in the assay with OVCAR-4 ovarian it was 1.87 µM; with RXF 393 renal, 0.307 µM. In the assay on SF-295 CNS, this compound displayed a TGI of 12.4 µM.

On to `C(#C[C@@]12CCC[C@@H]1N(Cc1ccccc1)CO2)c1ccc2c(c1)OCO2`, for which the TGI with 786-0 renal, in the assay on A498 renal, with HCT-116 colon, with HOP-62 NSCLC, with OVCAR-3 ovarian and in the assay on OVCAR-4 ovarian was greater than 100 µM each time. Besides, the TGI in the assay on RXF 393 renal and in the assay on SF-295 CNS was greater than 100 µM in each case.

For `O=C(c1cccc2cc(O)ccc12)c1cn(CCN2CCOCC2)c2ccccc12`, the TGI in the assay on 786-0 renal was determined as 42.3 µM; in the assay with HCT-116 colon, 38.9 µM; in the assay on HOP-62 NSCLC, 46.1 µM; with RXF 393 renal, 43.6 µM; in the assay with SK-MEL-5 melanoma, 55.3 µM.

Consider `O=c1oc2ccccc2n1CCCn1c(=O)oc2ccccc21`, for which the TGI in the assay with 786-0 renal, in the assay with A498 renal, in the assay with HCT-116 colon, in the assay with HOP-62 NSCLC, with OVCAR-3 ovarian and in the assay on RXF 393 renal was greater than 100 µM in each case. The TGI in the assay with SF-295 CNS and in the assay with SK-MEL-5 melanoma was greater than 100 µM each time.

With `CC(C)(C)C(=O)CC(=O)C(F)(F)C(F)(F)C(F)(F)F.[Ag]`, the TGI turned out to be 33 µM in the assay with 786-0 renal; 44.1 µM in the assay on HCT-116 colon; 50.9 µM in the assay with HOP-62 NSCLC; 27.7 µM in the assay with OVCAR-3 ovarian; 30.5 µM in the assay with OVCAR-4 ovarian; 32.4 µM in the assay with RXF 393 renal. The figures for the TGI with SF-295 CNS and with SK-MEL-5 melanoma were 39.2 µM and 21.3 µM, respectively.

On to `CCOC(=O)c1csc(-c2nc(CCNC(=O)c3ccccc3)sc2Cl)n1`, for which the TGI in the assay on 786-0 renal, in the assay with A498 renal, with HCT-116 colon, in the assay on HOP-62 NSCLC, with OVCAR-3 ovarian and in the assay on RXF 393 renal was greater than 100 µM each time. Moreover, the TGI in the assay with SF-295 CNS and with SK-MEL-5 melanoma was greater than 100 µM each time.

As to `COc1cc(OC2OC(CO)C(O)C(O)C2O)c2c(c1)O[C@@H]1[C@H](O)Oc3cc(OC)c(OC)cc3[C@]1(O)C2=O` (stereo partly drawn), the TGI in the assay with 786-0 renal, in the assay with A498 renal, in the assay on HCT-116 colon, in the assay on HOP-62 NSCLC, in the assay on OVCAR-3 ovarian and in the assay on OVCAR-4 ovarian was greater than 25 µM throughout. Also, the TGI with SF-295 CNS and in the assay with SK-MEL-5 melanoma was greater than 25 µM in each case.

As to `CC1(C)/C(=N\Nc2ccc([N+](=O)[O-])cc2[N+](=O)[O-])C2CCC1C2` (stereo not drawn), the TGI in the assay with 786-0 renal was greater than 100 µM; with HCT-116 colon it was greater than 100 µM; in the assay on HOP-62 NSCLC it was greater than 100 µM; in the assay on OVCAR-3 ovarian it was greater than 100 µM; with OVCAR-4 ovarian, greater than 100 µM; in the assay with SF-295 CNS it was 71.5 µM. In addition, the TGI in the assay on SK-MEL-5 melanoma was greater than 100 µM.

In the case of `CC(C)(C)OC(=O)N1CCC(NC(=O)NC2CCN(C(=O)OC(C)(C)C)CC2)CC1`, the TGI in the assay with 786-0 renal, in the assay on A498 renal, in the assay with HCT-116 colon, in the assay on HOP-62 NSCLC, in the assay on OVCAR-3 ovarian and with OVCAR-4 ovarian was greater than 100 µM in each case. In the assay on SF-295 CNS, this compound gave a TGI greater than 100 µM.

`CC(=O)OCCCCn1cnc2c(Cl)nc(Nc3ccccc3)nc21`: the TGI with 786-0 renal, in the assay with A498 renal, in the assay on HCT-116 colon, in the assay with HOP-62 NSCLC, with OVCAR-3 ovarian and in the assay with OVCAR-4 ovarian was greater than 100 µM throughout. For the same compound, the TGI in the assay on SF-295 CNS and with SK-MEL-5 melanoma was greater than 100 µM each time.

Regarding `O=C1NC(N2CCCCC2)=N/C1=C\c1ccccc1`, the TGI in the assay on 786-0 renal, in the assay on HCT-116 colon, with HOP-62 NSCLC, in the assay on OVCAR-3 ovarian, in the assay on OVCAR-4 ovarian and in the assay on RXF 393 renal was greater than 100 µM in each case. The TGI with SF-295 CNS was greater than 100 µM.

On to `COC(=O)/C=C/c1cnc2c(c1)oc(=O)n2C`, for which the TGI in the assay on 786-0 renal, with A498 renal, in the assay with HCT-116 colon, with HOP-62 NSCLC, in the assay on OVCAR-3 ovarian and in the assay on OVCAR-4 ovarian was greater than 100 µM throughout. For the same compound, the TGI in the assay on SF-295 CNS and in the assay with SK-MEL-5 melanoma was greater than 100 µM throughout.

Turning to `NS(=O)(=O)c1ccc(N2C(=O)C(=O)N(c3ccccc3)C2=S)cc1`, the TGI with 786-0 renal, in the assay on A498 renal, in the assay with HCT-116 colon, with HOP-62 NSCLC, in the assay on OVCAR-4 ovarian and with RXF 393 renal was greater than 100 µM in each case. The TGI in the assay on SF-295 CNS and in the assay with SK-MEL-5 melanoma was greater than 100 µM throughout.

Regarding `Cc1cc(=O)n2nc(CSc3n[nH]c(=S)s3)sc2n1`, the TGI in the assay with 786-0 renal, in the assay with HCT-116 colon, in the assay with HOP-62 NSCLC, in the assay on OVCAR-3 ovarian, in the assay with OVCAR-4 ovarian and in the assay with RXF 393 renal was greater than 100 µM throughout. In addition, the TGI in the assay with SF-295 CNS and with SK-MEL-5 melanoma was greater than 100 µM in each case.

Regarding `COC(=O)CCC(NC(=O)C(CCC(=O)OC)NC(=O)C(CCC(=O)OC)NC(=O)C(CCC(=O)OC)NC(=O)C(CCC(=O)OC)NC(=O)C(Cc1ccc([N+](=O)[O-])cc1)NC(=O)C(CCC(=O)OC)NC(=O)C(CCC(=O)OC)NC(=O)C(CCC(=O)OC)NC(=O)C(CCC(=O)OC)NC(=O)C(CCC(=O)OC)NC(C)=O)C(N)=O` (stereo not drawn) (Ac-E(OMe)E(OMe)E(OMe)E(OMe)E(OMe)[Phe(4-NO2)]E(OMe)E(OMe)E(OMe)E(OMe)E(OMe)-NH2; configuration not given here), the TGI in the assay with 786-0 renal, with HCT-116 colon, in the assay with OVCAR-4 ovarian, in the assay with RXF 393 renal, in the assay with SF-295 CNS and in the assay on SK-MEL-5 melanoma was greater than 100 µM each time.

For the compound `CC1=CC(=O)/C(=C/N2C(=O)CNC2=S)C(=O)O1`, the TGI with 786-0 renal, in the assay with HCT-116 colon, with HOP-62 NSCLC, in the assay on OVCAR-3 ovarian, in the assay on OVCAR-4 ovarian and with SF-295 CNS was greater than 100 µM throughout. In the assay on SK-MEL-5 melanoma, this compound returned a TGI greater than 100 µM.
